A word on the AUC(0-inf): it is the area under the concentration-time curve extrapolated to infinity. Low readings indicate low exposure, high ones high exposure. As usually defined, the Cmax is the peak of the concentration-time curve. As a reminder, the Tmax is the time from dosing to the highest level. One may read the half-life as the time needed for the level to fall by half in the phase considered. One may read the IC50 as the concentration that inhibits the measured activity by half.

Data set [1] concerns mouse rectal cancer cell line Colon26. Description: Anti-tumor effect in Colon26 tumor-bearing mouse model. Type of data set: in vivo, mouse (Balb/c). The note with it: Colon26 tumor-bearing mice. The text has this: The present invention further used the Colon26 tumor-bearing mouse model to test the anti-tumor effect of the example compounds. The Colon26 tumor-bearing mouse model was the mouse rectal cancer cell line Colon26 purchased from Guangzhou Ginio Biological Technology Co., Ltd., and the culture medium used was RPMI1640 containing 10% fetal bovine serum. The mouse strain used for tumor-bearing was Balb/c purchased from Sino-British SIPPR/BK Lab Animal Co., Ltd. At the time of implanting, the Colon26 cells in logarithmic growth phase were collected and mixed to 10 million cells/ml. Each mouse was implanted subcutaneously with 100 μl of one million cells. When the tumor grew to about 100 cubic millimeters, animals were randomly divided into groups with 8 animals per group. Drug administration was started (D0).
Mode of administration: intragastric administration, twice a day.
(§1) Formulation prescription: 3% dimethylacetamide and 20% hydroxypropyl-β-cyclodextrin. • Administration period and tumor measurement: The administration period was 13 days. The tumor volume was measured, the mice were weighed, and the data were recorded, 3 times per week. The calculation formula of tumor volume (V) is: V=½a×b2 where a and b represent length and width, respectively. The calculation formula of T/C is: T/C (%)=100×ΔT/ΔC. Tumor inhibition rate (%)=1−T/C (%). • Experimental results: The antitumor effect of the compound of Example 15 in Colon26 tumor-bearing mouse model is shown in the following table.
Under the same experimental conditions, the dosage was adjusted. The anti-tumor effect of Example 15 and its optical isomers 18-(1) and 18-(2) in Colon26 tumor-bearing mouse model is shown in the following table: […]

Data set [2] is described as follows: Pharmacokinetic (PK) analysis of rat plasma. Type of data set: in vivo. To be noted: Sprague-Dawley, po, 20 mg/kg, SD rats, single gavage, 20 mg/10 mL/kg. Here is the method: The pharmacokinetics test of the test compound was performed with Sprague Dawley (SD) rats (Shanghai Slac Laboratory Animal Co., LTD).
Mode of administration: Single gavage.
U Dosage: 20 mg/10 mL/kg.
Formulation prescription: 3% dimethylacetamide and 20% hydroxypropyl-3-cyclodextrin.
Sampling points: before administration and 15 minutes, 0.5, 1, 2, 4, 6, 8 and 24 hours after administration.
Plasma sampling and sample processing: • 1) 0.2 ml of intravenous blood was collected and placed in an EDTA-2K tube. The blood was centrifuged at 4° C. for 5 minutes at 6,000 rpm to separate the plasma, which was stored at −80° C. • 2) 160 μL of acetonitrile were added to 40 μL of plasma sample, standard, and internal reference. The mixture was shaken vertically for 3 minutes, and centrifuged at 4000 rpm for 10 minutes. 100 μL of the supernatant were taken, and then added with 100 μL of deionized water and mixed well. 100 μL of the resulting solution was taken for LC/MS/MS analysis. The instrument for plasma LC/MS/MS analysis was AB Sciex API 4000.
Liquid Chromatography Analysis: • Liquid chromatography conditions: Shimadzu LC-20AD pump • Chromatographic column: phenomenex Gemiu 5 μm C18 50×4.6 mm • Mobile phase: solution A was 0.1% formic acid solution, and solution B was acetonitrile • Flow rate: 0.8 mL/min • Elution time: 0-3.01 minutes and the eluent was as follows:
• Mass spectrometry analysis: setup conditions of mass spectrometer: positive ion electrospray ionization (ESI) mode. • Experimental results: the main parameters of pharmacokinetics were calculated by WinNonlin 6.1 and the experimental results are shown in the following table: […]

For data set [3], the system named is mouse pancreatic cancer cell line PAN02. Briefly: Anti-tumor effect in PAN02 tumor-bearing mouse model. Type of data set: in vivo, mouse (C57/BL6). The note with it: PAN02 tumor-bearing mice, 50 mg/kg intragastric twice a day.
From the text: The invention used the PAN02 tumor-bearing mouse model to test the anti-tumor effect of the example compounds. The PAN02 tumor-bearing mouse model was the mouse pancreatic cancer cell line PAN02 purchased from Guangzhou Ginnio Biological Technology Co., Ltd., and the culture medium used was DMEM containing 10% fetal bovine serum. The mouse strain used for tumor-bearing was C57/BL6 purchased from Shanghai Slac Laboratory Animal Co., Ltd. At the time of implanting, the PAN02 cells in the logarithmic growth phase were collected, and mixed with the BDMatrigel matrix gel that reduced the growth factor to 50 million cells/ml. Each mouse was implanted subcutaneously with 100 μL of 5 million cells. When the tumor grew to about 100 cubic millimeters, animals were randomly divided into groups with 8 animals per group. Drug administration was started (D0).
Mode of administration: intragastrical administration, twice a day.
as §1, with “3% two methyl acetamide” for “3% dimethylacetamide”, “times a” for “times per”, “is: V=½a×b2,” for “is: V=½a×b2”, “and width” for “and width,”, “results: the anti-tumor” for “results: The antitumor”, “in PAN02” for “in Colon26”

The target in data set [4] is T1, indoleamine 2,3-dioxygenase (IDO) in HeLa cells (Homo sapiens, UniProt P14902).
T1 construct: Interferon γ induced the expression of IDO in HeLa cells; host or cells: HeLa cells induced with interferon γ
Briefly: Cell model test for IDO activity inhibition (interferon γ induced HeLa cells). To be noted: interferon γ 50 ng/mL, 24 hours, read-out: Cytological Test IC50. Type of data set: cell-based. Here is the method:
Interferon γ induced the expression of IDO in HeLa cells. This model was used to test the inhibitory activity of compounds on indoleamine 2,3-dioxygenase (IDO). The culture medium of HeLa cells (ATCC) was phenol red-free RPMI-1640 containing 100 μM L-tryptophan. The stock solution of the test compound was prepared to 10 mM with dimethyl sulfoxide, and diluted with dimethyl sulfoxide to the highest concentration of the test during the experiment, then diluted in three-fold gradient, and generally diluted to 8 to 10 concentration points. Duplicate wells were set for each concentration point. The final concentration of DMSO was 0.5%, and internal reference compound was included in each experiment.
The procedure of the experiment was as follows: 20,000 HeLa cells (ATCC) per well were added on a 96-well culture plate and incubated overnight. After 24 hours, interferon γ (final concentration of 50 ng/mL) and different concentrations of the test compound and the internal reference compound were added to the incubated cells. After 24 hours, 140 μL of the supernatant/well was transferred to a new 96-well plate, and 10 μL of 6.1 N trichloroacetic acid was added to each well. The plate was incubated for 30 minutes at 50° C. to hydrolyze N-formyl-kynurenine to kynurenine. The reaction mixture was centrifuged at 2500 rpm for 10 minutes to remove the precipitate, and the supernatant (100 μL) was transferred to another new 96-well plate. 100 μL of 2% (W/V) p-(dimethylamino)benzaldehyde (p-DMBA)/glacial acetic acid solution was added to each well. The absorbance at 490 nm was read on a BioTek Synergy H1 microplate reader […].
The original data of the absorbance at 490 nm read on a microplate reader were analyzed. The inhibition of IDO enzyme activity was calculated at different concentrations of the test compound. The half-inhibitory concentration IC50 value of the compound was obtained by non-linear fitting analysis of inhibition percentage data by GraphPad Prism software.

Data set [5] deals with T2, Human indoleamine 2,3-dioxygenase (IDO) (Homo sapiens, UniProt P14902).
T2 construct: purchased BPS Bioscience Inc
Briefly: Enzymatic test for IDO activity inhibition. Type of data set: biochemical. The note with it: 40 nM IDO enzyme, 0.2 mM L-tryptophan, 60 minutes at 30° C. The procedure:
Human indoleamine 2,3-dioxygenase (IDO) was purchased from BPS Bioscience Inc. The enzymatic reaction of idoleamine 2,3-dioxygenase (IDO) was performed in a 96-well plate with a reaction volume of 20 μL. The reaction conditions were: 40 nM IDO enzyme, 0.2 mM L-tryptophan, 50 mM KPB (pH 6.5) buffer, 20 mM sodium L-L-ascorbate, 10 μM methylene blue, 0.2 mg/mL catalase, different concentrations of compounds containing <1% dimethyl sulfoxide. After reacting for 60 minutes at 30° C., 5 μL of 30% (w/v) trichloroacetic acid (in 50 mM KPB buffer) weres added to each well. The plate was incubated for 30 minutes at 50° C. to hydrolyze N-formyl-kynurenine to kynurenine. 25 μL of 2% (w/v) p-(dimethylamino)benzaldehyde (p-DMBA)/glacial acetic acid solution were added to each well. The absorbance at 490 nm was read on a BioTek Synergy H1 microplate reader […].
The stock solution of the test compound was prepared to 10 mM with dimethyl sulfoxide, diluted with dimethyl sulfoxide to the highest concentration of the test during the experiment, then diluted in 1:3 gradient, and generally diluted to 8 to 10 concentration points. Duplicate wells were set for each concentration point, and one reference compound was included in each experiment. The original data of the absorbance at 490 nm read on a microplate reader were analyzed. The inhibition of IDO enzyme activity was calculated at different concentrations of the test compound. The half-inhibitory concentration IC50 value of the compound was obtained by non-linear fitting analysis of inhibition percentage data by GraphPad Prism software.

Setting [6] is: 25 mg/kg intragastric twice a day, D12.

T2 sequence (P14902 whole entry): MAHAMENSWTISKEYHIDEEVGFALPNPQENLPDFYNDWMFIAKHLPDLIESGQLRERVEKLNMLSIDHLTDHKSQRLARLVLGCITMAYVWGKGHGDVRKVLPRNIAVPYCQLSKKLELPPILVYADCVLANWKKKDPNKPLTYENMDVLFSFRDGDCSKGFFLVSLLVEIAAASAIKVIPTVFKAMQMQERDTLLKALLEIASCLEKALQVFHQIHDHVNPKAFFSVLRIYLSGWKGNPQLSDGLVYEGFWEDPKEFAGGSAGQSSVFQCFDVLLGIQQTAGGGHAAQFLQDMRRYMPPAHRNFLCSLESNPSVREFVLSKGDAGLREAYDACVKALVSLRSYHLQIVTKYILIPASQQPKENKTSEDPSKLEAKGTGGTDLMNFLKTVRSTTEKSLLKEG
T1 sequence (P14902 whole entry): as above

Turning to `NS(=O)(=O)NCCNc1nonc1C(=NO)Nc1ccc(F)c(Br)c1` [INCB-24360, Epacadostat, reference compound], the “Average tumor volume (mm^3 ± SEM) D0” value in data set [1] (25 mg/kg intragastric twice a day, D0 (start of administration)) came out at 95.3 ± 2.4 mm^3. Further, in data set [1] (setting [6]), the “Average tumor volume (mm^3 ± SEM) D12” value came out at 565.2 ± 10.9 mm^3 and the “T/C (%) D12” value is 21.6%. Besides, in data set [1] (25 mg/kg intragastric twice a day, D12, 25 mg/kg), the “Tumor inhibition rate (%) D12” value came to 78.4%. For the same molecule, in data set [2], the AUC(0-inf) was 2.45 µg·h/mL, the Cmax turned out to be 0.306 µg/mL, the Tmax was determined as 1 h and the half-life was 3.5 h. Also, the “Average tumor volume (mm^3 ± SEM) D0” value in data set [3] (D0 (start of administration)) was determined as 102.8 ± 3.4 mm^3. Also, in data set [3] (D12), the “Average tumor volume (mm^3 ± SEM) D12” value was 242.1 ± 23.4 mm^3 and the “T/C (%) D12” value stood at 60.3%. Further, the “Tumor inhibition rate (%) D12” value in data set [3] (D12, 50 mg/kg) stood at 39.7%.
For the molecule `C[S@](=O)(CCNc1nonc1/C(=N/O)Nc1ccc(F)c(Br)c1)=NS(=O)(=O)C1CC1` [Example 18-②, (S,Z)—N-(3-bromo-4-fluorophenyl)-4-((2-(N-(cyclopropylsulfonyl)-S-methylsulfonimidoyl)ethyl)amino)-N′-hydroxy-1,2,5-oxadiazole-3-carboximidamide], the “Tumor inhibition rate (%) D12” value in data set [1] (10 mg/kg, D12) was determined as 68.49%. The IC50 in data set [4] turned out to be 0.009 µM. In addition, in data set [2], the total exposure AUC(0-inf) stood at 4.61 µg·h/mL, the concentration peaked (Cmax) at 2.02 µg/mL, the time to peak (Tmax) amounted to 0.5 h and the half-life is 1.4 h. Further, in data set [5], the half-inhibitory concentration (IC50) came to 0.024 µM.
